According to US20240208970A1, “SUBSTITUTED HYDANTOIN COMPOUNDS, METHODS FOR PREPARATION THEREOF AND USE THEREOF IN THE TREATMENT AND/OR PREVENTION OF A CORONA VIRUS DISEASE” (priority 2021, published 2024):

Legend:
M^pro = M^pro (Severe acute respiratory syndrome coronavirus 2 (2019-nCoV) (SARS-CoV-2), UniProt P0DTD1); type: binding; settings: steady-state analysis, 25° C.
[1] = target: SARS-CoV-2 M^pro protease (Severe acute respiratory syndrome coronavirus 2 (2019-nCoV) (SARS-CoV-2), UniProt P0DTD1); experiment: biochemical; type: biochemical; settings: M^pro 75 nM, substrate 10 μM

SMILES	Kd (M^pro) [nM]	IC50 ([1]; Tables 5B-5E) [nM]	IC50 ([1]; Table 5A) [nM]
CC(C)c1ccncc1N1C(=O)NC2(CC(c3ccccc3Cl)C2)C1=O (stereo not shown) [Compound 63, 2-(2-chlorophenyl)-7-(4-isopropylpyridin-3-yl)-5,7-diazaspiro[3.4]octane-6,8-dione]	89		
O=C1NC2(CC(n3cccn3)C2)C(=O)N1c1cncc2ccccc12 (stereo not shown) [Compound 46, 7-(isoquinolin-4-yl)-2-(1H-pyrazol-1-yl)-5,7-diazaspiro[3.4]octane-6,8-dione]	930		
CN(C)c1cncc(N2C(=O)NC3(CC(c4ccccc4Cl)C3)C2=O)c1 (stereo not shown) [Compound 65, 2-(2-chlorophenyl)-7-(5-(dimethylamino)pyridin-3-yl)-5,7-diazaspiro[3.4]octane-6,8-dione]	790		
O=C1NC2(CC(c3ccccc3Cl)C2)C(=O)N1c1cncnc1 (stereo not shown) [Compound 66, 2-(2-chlorophenyl)-7-(pyrimidin-5-yl)-5,7-diazaspiro[3.4]octane-6,8-dione]	691		
O=C1NC2(CC(c3ccccc3Cl)C2)C(=O)N1c1cncc2cnccc12 (stereo not shown) [Compound 51, 2-(2-chlorophenyl)-7-(2,7-naphthyridin-4-yl)-5,7-diazaspiro[3.4]octane-6,8-dione]	29	141	
O=C1NC2(CC(C3CCC3)C2)C(=O)N1c1cncc(F)c1 (stereo not shown) [Compound 13, 2-cyclobutyl-7-(5-fluoropyridin-3-yl)-5,7-diazaspiro[3.4]octane-6,8-dione]	66000 ± 14000		6700
O=C1NC2(CC(c3ccccc3Cl)C2)C(=O)N1c1cncc2cccnc12 (stereo not shown) [Compound 50, 2-(2-chlorophenyl)-7-(1,6-naphthyridin-8-yl)-5,7-diazaspiro[3.4]octane-6,8-dione]	28	105	
O=C1NC2(CC(c3ccccc3Cl)C2)C(=O)N1c1cncc2cccc(F)c12 (stereo not shown) [Compound 53, 2-(2-chlorophenyl)-7-(5-fluoroisoquinolin-4-yl)-5,7-diazaspiro[3.4]octane-6,8-dione]	42	253	
O=C1NC2(CC(c3ccccc3Cl)C2)C(=O)N1c1cccnc1F (stereo not shown) [Compound 62, 2-(2-chlorophenyl)-7-(2-fluoropyridin-3-yl)-5,7-diazaspiro[3.4]octane-6,8-dione]	36	201	
O=C1NC2(CC(c3ccccc3Cl)C2)C(=O)N1c1cncc2c(F)c(F)c(F)cc12 (single isomer, unassigned) [Compound 59, 2-(2-chlorophenyl)-7-(6,7,8-trifluoroisoquinolin-4-yl)-5,7-diazaspiro[3.4]octane-6,8-dione]	250	6600	
O=C1NC2(CC(c3ccccc3Cl)C2)C(=O)N1c1cncc2c(F)c(F)c(F)cc12 (single isomer, unassigned) [Compound 60, 2-(2-chlorophenyl)-7-(6,7,8-trifluoroisoquinolin-4-yl)-5,7-diazaspiro[3.4]octane-6,8-dione]	364	1370	
CC1(c2ccc(F)cc2Cl)CC2(C1)NC(=O)N(c1cncc3ccccc13)C2=O (single isomer, unassigned) [Compound 83, 2-(2-chloro-4-fluorophenyl)-7-(isoquinolin-4-yl)-2-methyl-5,7-diazaspiro[3.4]octane-6,8-dione]		241	
Cc1c(Br)cncc1N1C(=O)NC2(CC(C(C)(C)C)C2)C1=O (stereo not shown) [Compound 5, 7-(5-bromo-4-methylpyridin-3-yl)-2-tert-butyl-5,7-diazaspiro[3.4]octane-6,8-dione]			2700
O=C1NC2(CC(c3ccccc3Cl)C2)C(=O)N1c1cnccc1C(F)(F)F (stereo not shown) [Compound 92, 2-(2-chlorophenyl)-7-(4-(trifluoromethyl)pyridin-3-yl)-5,7-diazaspiro[3.4]octane-6,8-dione]		309	
O=C1NC2(CC(c3ccccc3Cl)C2)C(=O)N1c1cncc2nccnc12 (stereo not shown) [Compound 52, 2-(2-chlorophenyl)-7-(pyrido[3,4-b]pyrazin-8-yl)-5,7-diazaspiro[3.4]octane-6,8-dione]	134	394	
CC1(c2ccc(F)cc2Cl)CC2(C1)NC(=O)N(c1cncc3ccccc13)C2=O (single isomer, unassigned) [Compound 84, 2-(2-chloro-4-fluorophenyl)-7-(isoquinolin-4-yl)-2-methyl-5,7-diazaspiro[3.4]octane-6,8-dione]		806	
O=C1NC2(CC(c3cc(F)ccc3Cl)C2)C(=O)N1c1cncc2ccccc12 (single isomer, unassigned) [Compound 35, 2-(2-chloro-5-fluorophenyl)-7-(isoquinolin-4-yl)-5,7-diazaspiro[3.4]octane-6,8-dione]		82	
